Measured values published in US20230017532A1 (Hoffmann-La Roche Inc., priority 2018, published 2023).
Counter-ions that a name gives are not always drawn.

system: Acinetobacter baumannii ATCC17978; assay: Antimicrobial susceptibility testing: 90% growth inhibitory concentration (IC90) determination, Iso-Sensitest broth, OD 600 nm; assay type: cell-based; details: 90% growth inhibitory concentration, Acinetobacter baumannii ATCC17978, Iso-Sensitest broth, OD 600 nm over 16 h; read-out: ATCC 17978 IC90
Experimental: Antimicrobial Susceptibility Testing:
90% Growth Inhibitory Concentration (IC90) Determination
The in vitro antimicrobial activity of the compounds was determined according to the following procedure:
The assay used a 10-points Iso-Sensitest broth medium to measure quantitatively the in vitro activity of the compounds against Acinetobacter baumannii ATCC17978 and Acinetobacter baumannii ATCC17961.
Stock compounds in DMSO were serially twofold diluted (e.g. range from 50 to 0.097 μM final concentration) in 384 wells microtiter plates and inoculated with 49 μl the bacterial suspension in Iso-Sensitest medium to have a final cell concentration of ˜5×10^(5) CFU/ml in a final volume/well of 50 ul/well. Microtiter plates were incubated at 35±2° C.
Bacterial cell growth was determined with the measurement of optical density at λ=600 nm each 20 minutes over a time course of 16 h. Growth inhibition was calculated during the logarithmic growth of the bacterial cells with determination of the concentration inhibiting 50% (IC50) and 90% (IC90) of the growth.
Table 1 provides the 90% growth inhibitory concentrations (IC90) in micromoles per liter of the compounds of present invention obtained against the strain Acinetobacter baumannii ATCC17978 and Acinetobacter baumannii ATCC17961.

Work on CCc1cc(Nc2nccn3c(-c4ccc(OCC#N)c(F)c4F)cnc23)ccc1C(=O)NCCOCCN [Example 20, N-[2-(2-aminoethoxy)ethyl]-4-[[3-[4-(cyanomethoxy)-2,3-difluoro-phenyl]imidazo[1,2-a]pyrazin-8-yl]amino]-2-ethyl-benzamide;2,2,2-trifluoroacetic acid] yielded an IC90 of 64 nM.

same assay, conditions: Acinetobacter baumannii, ATCC17978, 16 h, 90% growth inhibitory concentration, Acinetobacter baumannii ATCC17978, Iso-Sensitest broth, OD 600 nm over 16 h; read-out: ATCC 17978 IC90

Going from COc1ccc(-c2cnc3c(Nc4ccc(C(=O)NCCOCCN5CCNCC5)c(Cl)c4)nccn23)c(F)c1F [Example 1, 2-chloro-4-[[3-(2,3-difluoro-4-methoxyphenyl)imidazo[1,2-a]pyrazin-8-yl]amino]-N-[2-(2-piperazin-1-ylethoxy)ethyl]benzamide;2,2,2-trifluoroacetic acid] to COc1ccc(-c2cnc3c(Nc4ccc(C(=O)NCCOCCN)c(Cl)c4)nccn23)c(F)c1F [Example 18, N-(2-(2-aminoethoxy)ethyl)-2-chloro-4-((3-(2,3-difluoro-4-methoxyphenyl)imidazo[1,2-a]pyrazin-8-yl)amino)benzamide], the IC90 falls from 120 nM to 57 nM (2.1-fold).

COc1ccc(-c2cnc3c(Nc4ccc(C(=O)NCCOCCN(C)C)c(Cl)c4)nccn23)c(F)c1F [Example 2, 2-chloro-4-[[3-(2,3-difluoro-4-methoxy-phenyl)imidazo[1,2-a]pyrazin-8-yl]amino]-N-[2-[2-(dimethylamino)ethoxy]ethyl]benzamide;2,2,2-trifluoroacetic acid] and CCc1cc(Nc2nccn3c(-c4ccc(OCC#N)c(F)c4F)cnc23)ccc1C(=O)NCCOCCN(C)C [Example 21, 4-[[3-[4-(cyanomethoxy)-2,3-difluoro-phenyl]imidazo[1,2-a]pyrazin-8-yl]amino]-N-[2-[2-(dimethylamino)ethoxy]ethyl]-2-ethyl-benzamide] are within 1.5-fold of each other in IC90: 120 nM for the first, 160 nM for the second.

Compared with COc1ccc(-c2cnc3c(Nc4ccc(C(=O)NCCOCCN5CCNC(=O)C5)c(C)c4)nccn23)c(F)c1F [Example 3, 4-[[3-(2,3-difluoro-4-methoxy-phenyl)imidazo[1,2-a]pyrazin-8-yl]amino]-2-methyl-N-[2-[2-(3-oxopiperazin-1-yl)ethoxy]ethyl]benzamide;2,2,2-trifluoroacetic acid], CCc1cc(Nc2nccn3c(-c4ccc(Cl)c(F)c4F)cnc23)ccc1C(=O)NCCOCCN [Example 9, N-(2-(2-aminoethoxy)ethyl)-4-((3-(4-chloro-2,3-difluorophenyl)imidazo[1,2-a]pyrazin-8-yl)amino)-2-ethylbenzamide hydrochloride] is 2.4-fold lower in IC90: 380 nM for the first, 160 nM for the second.

Going from COc1ccc(-c2cnc3c(Nc4ccc(C(=O)NCCOCCN)c(Cl)c4)nccn23)cc1 [Example 6, N-(2-(2-aminoethoxy)ethyl)-2-chloro-4-((3-(4-methoxyphenyl)imidazo[1,2-a]pyrazin-8-yl)amino)benzamide hydrochloride] to COc1ccc(-c2cnc3c(Nc4ccc(C(=O)NCCOCCN)c(C)c4)nccn23)cc1 [Example 14, N-(2-(2-aminoethoxy)ethyl)-4-((3-(4-methoxyphenyl)imidazo[1,2-a]pyrazin-8-yl)amino)-2-methylbenzamide hydrochloride], the IC90 rises from 120 nM to 240 nM (2-fold).

First: COc1ccc(-c2cnc3c(Nc4ccc(C(=O)NCCNCCO)c(C)c4)nccn23)cc1 [Example 7, N-(2-((2-hydroxyethyl)amino)ethyl)-4-((3-(4-methoxyphenyl)imidazo[1,2-a]pyrazin-8-yl)amino)-2-methylbenzamide]
Second: COc1ccc(-c2cnc3c(Nc4ccc(C(=O)NCCOCCCl)c(C)c4)nccn23)cc1 [Example 8, N-(2-(2-chloroethoxy)ethyl)-4-((3-(4-methoxyphenyl)imidazo[1,2-a]pyrazin-8-yl)amino)-2-methylbenzamide]
The IC90 of the first is 3-fold higher: 1900 nM for the first, 630 nM for the second.

Cc1cc(Nc2nccn3c(-c4ccc(OC(F)F)cc4)cnc23)ccc1C(=O)NCCOCC(N)=O [Example 10, N-(2-(2-amino-2-oxoethoxy)ethyl)-4-((3-(4-(difluoromethoxy)phenyl)imidazo[1,2-a]pyrazin-8-yl)amino)-2-methylbenzamide] and CNC(=O)COCCNC(=O)c1ccc(Nc2nccn3c(-c4ccc(OC(F)F)cc4)cnc23)cc1C [Example 11, 4-((3-(4-(difluoromethoxy)phenyl)imidazo[1,2-a]pyrazin-8-yl)amino)-2-methyl-N-(2-(2-(methylamino)-2-oxoethoxy)ethyl)benzamide] are within 1.5-fold of each other in IC90: 170 nM for the first, 160 nM for the second.

Cc1cc(Nc2nccn3c(-c4ccc(OC(F)F)cc4)cnc23)ccc1C(=O)NCCOCCN1C(=O)COC1=O [Example 12, 4-((3-(4-(difluoromethoxy)phenyl)imidazo[1,2-a]pyrazin-8-yl)amino)-N-(2-(2-(2,4-dioxooxazolidin-3-yl)ethoxy)ethyl)-2-methylbenzamide] and Cc1cc(Nc2nccn3c(-c4ccc(OC(F)F)cc4)cnc23)ccc1C(=O)NCCOCCOCCN [Example 16, N-(2-(2-(2-aminoethoxy)ethoxy)ethyl)-4-((3-(4-(difluoromethoxy)phenyl)imidazo[1,2-a]pyrazin-8-yl)amino)-2-methylbenzamide] are within 1.5-fold of each other in IC90: 750 nM for the first, 570 nM for the second.

CNCCNC(=O)c1ccc(Nc2nccn3c(-c4ccc(OC)c(Cl)c4)cnc23)cc1 [Example 13, 4-[[3-(3-chloro-4-methoxyphenyl)imidazo[1,2-a]pyrazin-8-yl]amino]-N-[2-(methylamino)ethyl]benzamide;hydrochloride] and COc1ccc(-c2cnc3c(Nc4ccc(C(=O)NCCOCCN)cc4)nccn23)cc1 [Example 15, N-(2-(2-aminoethoxy)ethyl)-4-((3-(4-methoxyphenyl)imidazo[1,2-a]pyrazin-8-yl)amino)benzamide hydrochloride] are within 1.5-fold of each other in IC90: 4200 nM for the first, 3800 nM for the second.

First: Cc1cc(Nc2nccn3c(-c4ccc(OC(F)F)cc4)cnc23)ccc1C(=O)NCCOCCOCCOCCN [Example 17, N-(2-(2-(2-(2-aminoethoxy)ethoxy)ethoxy)ethyl)-4-((3-(4-(difluoromethoxy)phenyl)imidazo[1,2-a]pyrazin-8-yl)amino)-2-methylbenzamide]
Second: C#CCOc1ccc(-c2cnc3c(Nc4ccc(C(=O)NCCOCCN)c(C)c4)nccn23)cc1 [Example 28, N-[2-(2-Aminoethoxy)ethyl]-2-methyl-4-[[3-(4-prop-2-ynoxyphenyl)imidazo[1,2-a]pyrazin-8-yl]amino]benzamide; formic acid]
The IC90 of the first is 9.2-fold higher: 1100 nM for the first, 120 nM for the second.

N#CCOc1ccc(-c2cnc3c(Nc4ccc(C(=O)NCCOCCn5ccnc5)c(Cl)c4)nccn23)c(F)c1F [Example 19, N-(2-(2-(1H-imidazol-1-yl)ethoxy)ethyl)-2-chloro-4-((3-(4-(cyanomethoxy)-2,3-difluorophenyl)imidazo[1,2-a]pyrazin-8-yl)amino)benzamide] and CCc1cc(Nc2nccn3c(-c4ccc(OCC#N)c(F)c4Cl)cnc23)ccc1C(=O)NCCOCCN(C)C [Example 22, 4-[[3-[2-chloro-4-(cyanomethoxy)-3-fluoro-phenyl]imidazo[1,2-a]pyrazin-8-yl]amino]-N-[2-[2-(dimethylamino)ethoxy]ethyl]-2-ethyl-benzamide] are within 1.5-fold of each other in IC90: 83 nM for the first, 67 nM for the second.

COc1ccc(-c2cnc3c(Nc4ccc(C(=O)NCCN(C)CCN)c(C)c4)nccn23)cc1F [Example 23, N-(2-((2-aminoethyl)(methyl)amino)ethyl)-4-((3-(3-fluoro-4-methoxyphenyl)imidazo[1,2-a]pyrazin-8-yl)amino)-2-methylbenzamide] and COc1ccc(-c2cnc3c(Nc4ccc(C(=O)NCCSCCN)c(C)c4)nccn23)cc1F [Example 25, N-(2-((2-aminoethyl)thio)ethyl)-4-((3-(3-fluoro-4-methoxyphenyl)imidazo[1,2-a]pyrazin-8-yl)amino)-2-methylbenzamide] are within 1.5-fold of each other in IC90: 200 nM for the first, 150 nM for the second.

First: CCN(C(=O)NCCCN(C)C)C(=O)c1ccc(Nc2nccn3c(-c4ccc(OCC#N)c(F)c4F)cnc23)cc1Cl [Example 27, 2-chloro-4-[[3-[4-(cyanomethoxy)-2,3-difluoro-phenyl]imidazo[1,2-a]pyrazin-8-yl]amino]-N-[3-(dimethylamino)propylcarbamoyl]-N-ethyl-benzamide]
Second: Cc1cc(Nc2nccn3c(-c4ccc(OCC#CCO)cc4)cnc23)ccc1C(=O)NCCOCCN [Example 29, N-[2-(2-aminoethoxy)ethyl]-4-[[3-[4-(4-hydroxybut-2-ynoxy)phenyl]imidazo[1,2-a]pyrazin-8-yl]amino]-2-methyl-benzamide formate]
The IC90 of the first is 4.7-fold higher: 560 nM for the first, 120 nM for the second.

same assay, conditions: Acinetobacter baumannii, ATCC17978, 16 h, read-out: ATCC 17978 IC90

Going from COc1ccc(-c2cnc3c(Nc4ccc(C(=O)NCCOCCN)c(Cl)c4)nccn23)cc1F [Example 4, N-(2-(2-aminoethoxy)ethyl)-2-chloro-4-((3-(3-fluoro-4-methoxyphenyl)imidazo[1,2-a]pyrazin-8-yl)amino)benzamide hydrochloride] to COc1ccc(-c2cnc3c(Nc4ccc(C(=O)NCCOCCN)c(C)c4)nccn23)c(F)c1F [Example 5, N-(2-(2-aminoethoxy)ethyl)-4-((3-(2,3-difluoro-4-methoxyphenyl)imidazo[1,2-a]pyrazin-8-yl)amino)-2-methylbenzamide hydrochloride], the IC90 falls from 98 nM to 65 nM (1.5-fold).

COc1ccc(-c2cnc3c(Nc4ccc(C(=O)N(C)CCOCCN)c(C)c4)nccn23)cc1 [Example 24, N-(2-(2-aminoethoxy)ethyl)-4-((3-(4-methoxyphenyl)imidazo[1,2-a]pyrazin-8-yl)amino)-N,2-dimethylbenzamide hydrochloride] showed an IC90 of 430 nM.
